Measured values reported in ChEMBL document CHEMBL1125927, “New isomeric classes of topically active ocular hypotensive carbonic anhydrase inhibitors: 5-substituted thieno[2,3-b]thiophene-2-sulfonamides and 5-substituted thieno[3,2-b]thiophene-2-sulfonamides” (J Med Chem, 1991).
“And” between values parts separate entries of the source, which are not always exact repeats. Equal entries are not always repeated.

Experiments:
Oryctolagus cuniculus [1] = species on record: Oryctolagus cuniculus; assay: Intraocular pressure studies in hypertensive pigmented rabbits was performed; format: functional; also: test concentration or dose not given here
Oryctolagus cuniculus [2] = species on record: Oryctolagus cuniculus; assay: Intraocular pressure studies in normotensive albino rabbits was performed; format: functional; also: test concentration or dose not given here
Oryctolagus cuniculus [3] = species on record: Oryctolagus cuniculus; assay: Intraocular pressure studies in normotensive pigmented rabbits was performed; format: functional; also: test concentration or dose not given here
Oryctolagus cuniculus [4] = species on record: Oryctolagus cuniculus; assay: Intraocular pressure studies were performed for the compound and compared with MK-927; format: functional; also: test concentration or dose not given here
Carbonic anhydrase 2 [5] = molecular target: T1, Carbonic anhydrase 2 (Homo sapiens, UniProt P00918)
Description: In vitro inhibitory activity against human carbonic anhydrase II

Carbonic anhydrase 2 [6] = molecular target: T1, Carbonic anhydrase 2; remark: listed apart in the source
Description: In vitro binding affinity against human carbonic anhydrase II

physchem [7] = assay: physchem
Description: Dissociation constant (pKa)

physchem [8] = settings: octanol/water, pH 7.4
Description: Partition coefficient (logD7.4)

Carbonic anhydrase 2 [9] = molecular target: T1, Carbonic anhydrase 2; remark: listed apart in the source
Description: The compound was tested for in vitro inhibitory activity against human Carbonic anhydrase II

Carbonic anhydrase 2 [10] = molecular target: T1, Carbonic anhydrase 2; remark: listed apart in the source
Description: The compound was tested for in vitro binding affinity against human Carbonic anhydrase II

Carbonic anhydrase 2 [11] = molecular target: T1, Carbonic anhydrase 2; assay: The compound was tested for in vitro inhibitory activity against human carbonic anhydrase II.; settings: read-out: I50
Carbonic anhydrase 2 [12] = molecular target: T1, Carbonic anhydrase 2; assay: The compound was tested for in vitro inhibitory activity against human carbonic anhydrase II; settings: read-out: I50

Description for Bos taurus: The binding to bovine iris and ciliary body pigment

| Structure (SMILES) | IC50 (Carbonic anhydrase 2 [5]) [nM] | Ki (Carbonic anhydrase 2 [6]) [nM] | Pigment binding (Bos taurus) [%] | pKa (physchem [7]) | logD (physchem [8]) | other results |
| --- | --- | --- | --- | --- | --- | --- |
| COC(=O)CSc1sccc1C1OCCO1 | – | – | – | – | – | IOP (Oryctolagus cuniculus [1]): -2.1 mmHg; IOP (Oryctolagus cuniculus [2]): -1.4 mmHg; IOP (Oryctolagus cuniculus [3]): -1.6 mmHg; IOP (Oryctolagus cuniculus [4]): -3.9 mmHg and -4.8 mmHg |
| COCCOCCN(CCOC)C(Cc1ccc(F)cc1)c1cc2cc(S(N)(=O)=O)sc2s1 (centres undefined) | 1.15 | 6.54 | – | – | – | – |
| NCc1cc2cc(S(N)(=O)=O)sc2s1 | 14 | – | 92 | 7.3 | – | – |
| NS(=O)(=O)c1cc2cc(C(=O)N(CCO)CCO)sc2s1 | 6.6 | 9 | – | – | – | – |
| OCc1cc2ccsc2s1 | – | – | – | – | – | IOP (Oryctolagus cuniculus [2]): -3 mmHg |
| NS(=O)(=O)c1cc2cc(C(=O)NCC(O)CO)sc2s1 (centres undefined) | 3.2 | 3.4 | 36.7 | – | -0.347 | – |
| NS(=O)(=O)c1cc2cc(CN3CC[S+]([O-])CC3)sc2s1 | 4 | 3.4 | – | 4.23 | 0.111 | – |
| O=Cc1cc2ccsc2s1 | – | – | – | – | – | IOP (Oryctolagus cuniculus [2]): -1.3 mmHg; IOP (Oryctolagus cuniculus [3]): -1.6 mmHg |
| CC(C)CNCc1cc2cc(S(N)(=O)=O)sc2s1 | 2.5 | 4.4 | – | 7.9 | 0.924 | – |
| CS(=O)(=O)CCNCc1cc2cc(S(N)(=O)=O)sc2s1.Cl | – | – | 56.8 | 5.2 | -0.26 | IC50 (Carbonic anhydrase 2 [9]): 4.5 nM; Ki (Carbonic anhydrase 2 [10]): 4.8 nM |
| CC(C)(C)NCc1cc2cc(S(N)(=O)=O)sc2s1 | – | 36.8 | – | 8.28 | -0.0757 | IC50 (Carbonic anhydrase 2 [11]): 10 nM |
| C[S+]([O-])CCNC(=O)c1cc2cc(S(N)(=O)=O)sc2s1 (centres undefined) | 4.6 | 2.39 | 35.6 | – | -0.155 | – |
| Cl.NS(=O)(=O)c1cc2cc(CN3CCOCC3)sc2s1 | 3 | 1.1 | 42.9 | 5.25 | 1.17 | – |
| CNC(=O)c1cc2cc(S(N)(=O)=O)sc2s1 | – | – | – | 5.2 | – | – |
| COCCN(CCNC(=O)c1cc2cc(S(N)(=O)=O)sc2s1)CCOC.Cl | 2.5 | – | 87.5 | – | – | – |
| CC(C=O)N(Cc1cc2cc(S(N)(=O)=O)sc2s1)C(C)C=O.Cl (centres undefined) | – | – | 49.7 | 5.75 | 1.17 | IC50 (Carbonic anhydrase 2 [9]): 2.71 nM; Ki (Carbonic anhydrase 2 [10]): 1.49 nM |
| COCCCNCc1cc2cc(S(N)(=O)=O)sc2s1.Cl | 4.9 | – | 85.4 | 7.52 | 0.204 | – |
| COCCOCCN(CCOC)C(C)c1cc2cc(S(N)(=O)=O)sc2s1 (centres undefined) | 0.5 | 1.54 | – | – | – | – |
| COCCOCCN(CCOC)Cc1cc2cc(S(N)(=O)=O)sc2s1.Cl | 2.8 | 1.58 | 38.5 | 5.55 | 1.14 | IOP (Oryctolagus cuniculus [1]): -4.4 mmHg; IOP (Oryctolagus cuniculus [2]): -3.3 mmHg; IOP (Oryctolagus cuniculus [3]): -4.8 mmHg; IOP (Oryctolagus cuniculus [4]): -5.3 mmHg |
| NS(=O)(=O)c1cc2cc(CNC(CO)CO)sc2s1 | 8.4 | – | – | 6.95 | – | – |
| CC(C)CNCc1cc2sc(S(N)(=O)=O)cc2s1.Cl | 2.8 | 2.7 | 86.5 | 7.6 | 1.24 | – |

| Structure (SMILES) | IC50 (Carbonic anhydrase 2 [5]) [nM] | Ki (Carbonic anhydrase 2 [6]) [nM] | Pigment binding (Bos taurus) [%] | pKa (physchem [7]) | logD (physchem [8]) | other results |
| --- | --- | --- | --- | --- | --- | --- |
| COCCOCCCNCc1cc2cc(S(N)(=O)=O)sc2s1.Cl | 6.5 | – | 87.5 | 7.4 | -0.137 | – |
| COCCNCc1cc2cc(S(N)(=O)=O)sc2s1.Cl | 5 | 3.9 | 88 | 7 | 0.324 | – |
| Cl.NS(=O)(=O)c1cc2cc(CNCCF)sc2s1 | 2.7 | 1.98 | 81.9 | 6.4 | 0.702 | – |
| Cl.NS(=O)(=O)c1cc2cc(C(=O)NCCN3CCSCC3)sc2s1 | 2.9 | 4.02 | 96.4 | 6.03 | 1.5 | – |
| COCCN(CCOC)Cc1cc2sc(S(N)(=O)=O)cc2s1.Cl | 2.5 | 0.95 | 41.4 | 5.48 | 1.56 | – |
| Cl.NS(=O)(=O)c1cc2cc(C(=O)NCCN3CCOCC3)sc2s1 | 2.9 | 6.38 | 91.6 | 5.8 | 0.587 | – |
| NS(=O)(=O)c1cc2cc(CNCCO)sc2s1 | 6.3 | – | – | 7.18 | -0.721 | – |
| CNCc1cc2sc(S(N)(=O)=O)cc2s1.Cl | 3.2 | 11.8 | 87.3 | 7.65 | -0.495 | – |
| C[S+]([O-])CCNCc1cc2cc(S(N)(=O)=O)sc2s1.Cl (centres undefined) | 8.4 | 5.5 | 67.5 | 5.58 | -0.444 | – |
| Cl.NS(=O)(=O)c1cc2cc(CNCC(F)(F)F)sc2s1 | 2.2 | – | 21.1 | 3.75 | – | – |
| COCCOCCNC(C)c1cc2cc(S(N)(=O)=O)sc2s1.Cl (centres undefined) | – | 3.05 | 71.9 | 7.13 | 0.708 | IC50 (Carbonic anhydrase 2 [12]): 0.7 nM |
| NS(=O)(=O)c1cc2cc(CNCC3CC3)sc2s1 | 3.3 | 6.7 | – | 7.72 | 0.398 | – |
| Cl.NS(=O)(=O)c1cc2cc(CN(CCO)CCO)sc2s1 | 2.27 | 2.6 | 71.8 | 5.5 | 0.23 | – |
| COCCN(CCOC)Cc1cc2cc(S(N)(=O)=O)sc2s1.Cl | 4.2 | 1.34 | 50 | 5.34 | 1.58 | IOP (Oryctolagus cuniculus [2]): -2.6 mmHg; IOP (Oryctolagus cuniculus [3]): -4.1 mmHg; IOP (Oryctolagus cuniculus [4]): -4.6 mmHg |
| CNCc1cc2cc(S(N)(=O)=O)sc2s1.Cl | 3 | – | 92.1 | 8.02 | -0.538 | Ki (Carbonic anhydrase 2 [10]): 20.9 nM |
| NS(=O)(=O)c1cc2cc(CNCCCCO)sc2s1 | 3 | – | – | 7.7 | -0.678 | – |
| Cl.NS(=O)(=O)c1cc2cc(CN3CCSCC3)sc2s1 | 2.6 | 0.44 | 69.9 | 5.05 | 1.14 | – |
| COCCOCCN(CCOCCOC)Cc1cc2cc(S(N)(=O)=O)sc2s1.Cl | – | – | 40.3 | 5.72 | 0.992 | IC50 (Carbonic anhydrase 2 [9]): 3.95 nM; Ki (Carbonic anhydrase 2 [10]): 2.77 nM |
| CN(C)CCNC(=O)c1cc2cc(S(N)(=O)=O)sc2s1.Cl | 8.8 | 11 | 97 | 7.48 | -0.398 | – |
| COCCNCc1cc2sc(S(N)(=O)=O)cc2s1.Cl | 2.8 | 3.1 | 81.9 | 6.65 | 0.509 | – |
